Experimental data: paper PMC9725750, “The clinical pharmacology of tafenoquine in the radical cure of Plasmodium vivax malaria: An individual patient data meta-analysis” (eLife, 2022)
Read-outs that look alike come from different tables or passages of the source.

What was measured:
[1] = system: blood MetHb; assay: Blood methaemoglobin (MetHb) concentration on day 7 by pulse CO-oximeter; type: in vivo, human
Description: All patients in the phase 1 trial and the three efficacy trials had frequent blood MetHb measurements taken using non-invasive signal extraction pulse CO-oximeter handheld machines. For the three efficacy trials, we excluded measurements taken at or after recurrence of vivax malaria. Because erroneous readings from the handheld oximeters can occur, we inspected visually the longitudinal MetHb curves for each patient. […] All patients from this site were excluded from the MetHb analysis ( n =91), resulting in a total of 9632 MetHb measurements across 746 P. vivax infected patients and 72 healthy volunteers.

[2] = Population pharmacokinetic modelling of plasma tafenoquine (patients and healthy volunteers); type: in vivo, human; conditions: for Patient – MTT covariate / Patient – Vc/F covariate / Patient – Vp/F covariate: Malaria patients: 1 + Θ; for Vomit – F covariate: Vomiting: 1 + Θ; for Age – CL/F covariate: linear, 1 + Θ × (Age-35); for Vd/F: human, plasma, oral, read-out: Vc/F, apparent central volume of distribution; for IIV CL/F, inter-individual variability / IIV F, inter-individual variability / IIV MTT, inter-individual variability / IIV Q/F, inter-individual variability / IIV Vp/F, inter-individual variability / RUV, additive residual error: variance estimate
Description: Tafenoquine pharmacokinetics have been described in detail previously ([Thakkar et al., 2018]). Tafenoquine is a slowly eliminated 8-aminoquinoline antimalarial drug with a terminal elimination half-life of around 15 days. The metabolites have not been well characterised. Tafenoquine pharmacokinetics have been characterised previously by a two-compartment pharmacokinetic (PK) model (i.e. bi-exponential decay model) with allometric scaling of clearance and volume parameters ([Thakkar et al., 2018]). We inspected visually all individual drug level profiles and excluded 10 concentrations from 8 patients which were substantial outliers. A total of 15 malaria patients vomited within one hour of drug administration. […] One patient was not re-dosed and had very low tafenoquine levels during follow-up. We removed this patient from all analyses as it is difficult to estimate the amount of drug ingested. For the remaining 14 patients who vomited and were re-dosed, time since dose was calculated as the time since the second dose (in some patients this was the next day). All available tafenoquine concentration measurements were transformed into their natural logarithms and characterised using nonlinear mixed-effects modelling in the software NONMEM v7.4 (Icon Development Solution, Ellicott City, MD). […] One-, two-, and three-compartment dispositional models were evaluated, as well as different absorption models (i.e. first-order absorption and a fixed number of transit absorption compartments). Inter-individual variability was implemented as an exponential function of all structural PK parameters. The first-order conditional estimation method with interactions (FOCE-I) and subroutine ADVAN5 TRANS1 were used throughout the study. Body weight was implemented as a fixed allometric function on clearance parameters (exponent of 0.75) and as a linear function on volume parameters (exponent of 1.0). Additional, biologically relevant, covariates (i.e. age, sex, vomiting, tafenoquine formulation and patient vs healthy volunteers) were evaluated on all PK parameters using a linearized stepwise addition (p<0.01) and backward elimination (p<0.001) covariate approach.
Potential model mis-specification and systematic errors were evaluated by basic goodness-of-fit diagnostics. Model robustness and parameter confidence intervals were evaluated by a sampling-important-resampling (SIR) procedure ([Dosne et al., 2017]). Predictive performance of the final model was illustrated by prediction-corrected visual predictive checks (n=2,000) ([Bergstrand et al., 2011]). The 5th, 50th, and 95th percentiles of the observed concentrations were overlaid with the 95% confidence intervals of each simulated percentile to detect model bias. Under the population mixed-effects model we estimated for each healthy volunteer and each patient in the three efficacy studies: (i) the area under the plasma concentration time curve ( AUC[0,∞ ); (ii) the maximum peak concentration ( Cmax ); and (iii) the terminal elimination half-life (t1/2). […] Details of the final model are given in Appendix 6.
For the terminal elimination half-life, multiple patients had estimated values greater than 30 days. On examination, the NONMEM model estimates of the terminal elimination half-life were not robust with respect to the model structure. In order to derive robust half-life estimates, we fit a robust (using a student- t likelihood, [Lange et al., 1989]) Bayesian hierarchical linear model to the observed log-concentrations post day 4 (terminal phase; random intercept and slope). […] The half-life is then defined as -log(2)/βi where βi is the individual slope estimate for patient i . Values below the lower limit of quantification were treated as left-censored observations with censoring value equal to log(2 ng/ml). The model included an interaction term between time and the log patient weight (clearance was associated with weight); and a dose (mg/kg) dependent intercept term. […]

[3] = population estimate (%RSE), typical healthy individual 70 kg, 35 years

In the case of COc1cc(C)c2c(Oc3cccc(C(F)(F)F)c3)c(OC)cc(NC(C)CCCN)c2n1 (stereo not drawn) [tafenoquine], the “increase in day 7 MetHb concentrations per additional mg/kg” value ([1]; 95% CI 17% to 21%) is reported as 19%, the “lower day 7 methaemoglobinaemia in healthy volunteers compared to patients infected with P. vivax” value ([1]; adjusted for mg/kg dose, 95% CI 0 to 34%, p=0.02) is reported as 15% and the “day of peak MetHb levels” value ([1]; after single dose tafenoquine + chloroquine) is reported as ~7 days. For the same compound, the “CL/F, oral elimination clearance” value ([2]; SIR median (95% CI)) was 3.14 (2.71–3.70) L/h, the “MTT, mean absorption transit time over 6 transit compartments” value ([2]; SIR median (95% CI)) was 3.05 (2.30–3.87) h and the “Vp/F, apparent peripheral volume of distribution” value ([2]; SIR median (95% CI)) was 318 (248–424) L. The “Patient – MTT covariate” value ([2]; SIR median (95% CI)) was 0.929 (0.605–1.51), the “Patient – Vc/F covariate” value ([2]; SIR median (95% CI)) was “–0.282 (-0.0784–-0.395)” and the “Patient – Vp/F covariate” value ([2]; SIR median (95% CI)) was 1.30 (0.670–1.88). The “Vomit – F covariate” value ([2]; SIR median (95% CI)) was 0.434 (0.315–0.608), the “Age – CL/F covariate” value ([2]; SIR median (95% CI)) was “–0.00435 (-0.00206–-0.00589)” and the “decrease in CL/F per 10 years of age increase from the median age of 35 years” value ([2]; covariate Age – CL/F, final model) was 4.34%. For the same compound, the “lower central volume of distribution in patients compared to healthy volunteers” value ([2]; covariate Patient – Vc/F) was 27.6%, the “higher total dose when 1st dose was vomited and re-administered” value ([2]; covariate Vomit – F, relative oral bioavailability) was 44.7% and the Vd/F ([2]; SIR median (95% CI)) was 1360 L. For the same compound, the Vd/F [2, 3] was 1330 L, the “Patient – MTT covariate” value ([2]; population estimate (%RSE)) was 0.937 (24.7) and the “Patient – Vc/F covariate” value ([2]; population estimate (%RSE)) was “–0.276 (29.4)”. For the same compound, the “Patient – Vp/F covariate” value ([2]; population estimate (%RSE)) was 1.40 (21.6), the “Vomit – F covariate” value ([2]; population estimate (%RSE)) was 0.447 (16.3) and the “Age – CL/F covariate” value ([2]; population estimate (%RSE)) was “–0.00434 (23.4)”. For the same compound, the “CL/F, oral elimination clearance” value [2, 3] was 3.14 (8.43) L/h, the “MTT, mean absorption transit time over 6 transit compartments” value [2, 3] was 3.14 (12.8) h and the “Vp/F, apparent peripheral volume of distribution” value [2, 3] was 311 (14.4) L. The “IIV CL/F, inter-individual variability” value ([2]; SIR median (95% CI)) was 0.0349 (0.0193–0.0451), the “IIV F, inter-individual variability” value ([2]; SIR median (95% CI)) was 0.0870 (0.0559–0.120) and the “IIV MTT, inter-individual variability” value ([2]; SIR median (95% CI)) was 0.0887 (0.0585–0.124). For the same compound, the “IIV Q/F, inter-individual variability” value ([2]; SIR median (95% CI)) was 0.156 (0.1000–0.226), the “IIV Vp/F, inter-individual variability” value ([2]; SIR median (95% CI)) was 0.0265 (0.0153–0.0400) and the “RUV, additive residual error” value ([2]; SIR median (95% CI)) was 0.0240 (0.0170–0.0333). For the same compound, the “IIV CL/F, inter-individual variability” value ([2]; population estimate (%RSE)) was 0.0338 (18.8), the “IIV F, inter-individual variability” value ([2]; population estimate (%RSE)) was 0.0850 (19.2) and the “IIV MTT, inter-individual variability” value ([2]; population estimate (%RSE)) was 0.0831 (21.0). For the same compound, the “IIV Q/F, inter-individual variability” value ([2]; population estimate (%RSE)) was 0.151 (20.5), the “IIV Vp/F, inter-individual variability” value ([2]; population estimate (%RSE)) was 0.0256 (25.3) and the “RUV, additive residual error” value ([2]; population estimate (%RSE)) was 0.0225 (18.8).
